Reference: ChEMBL document CHEMBL5506069, “A Unique Hybridization Route to Access Hydrazylnaphthalimidols as Novel Structural Scaffolds of Multitargeting Broad-Spectrum Antifungal Candidates” (J Med Chem, 2024)
≈ marks a conversion by molar mass, not a printed value.

How the values were obtained:
Format in all cases: functional
Candida tropicalis = assay: Antifungal activity against Candida tropicalis assessed as inhibition of fungal growth incubated for 24 hrs by CLSI based microbroth dilution method
Candida albicans [1] = assay: Antifungal activity against Candida albicans assessed as inhibition of fungal growth incubated for 24 hrs by CLSI based microbroth dilution method
Candida parapsilosis = assay: Antifungal activity against Candida parapsilosis ATCC 22019 assessed as inhibition of fungal growth incubated for 24 hrs by CLSI based microbroth dilution method; details: Lodderomyces parapsilosis
Candida albicans [2] = assay: Antifungal activity against Candida albicans ATCC 90023 assessed as inhibition of fungal growth incubated for 24 hrs by CLSI based microbroth dilution method
Aspergillus fumigatus = assay: Antifungal activity against Aspergillus fumigatus assessed as inhibition of fungal growth incubated for 24 hrs by CLSI based microbroth dilution method

SMILES | MIC (Candida tropicalis) [µM] | MIC (Candida albicans [1]) [µM] | MIC (Candida parapsilosis) [µM] | MIC (Candida albicans [2]) [µM] | MIC (Aspergillus fumigatus) [µM]
C[n+]1ccc(/C=N/Nc2ccc3c4c(cccc24)C(=O)N(CCO)C3=O)cc1 | 255 | 16 | 64 | 8 | 127
O=C1c2cccc3c(N/N=C/c4ncc[nH]4)ccc(c23)C(=O)N1CCO | 92 (≈ 32.1 µg/mL) | 367 (≈ 128 µg/mL) | 6 (≈ 2.1 µg/mL) | 183 (≈ 63.9 µg/mL) | 183 (≈ 63.9 µg/mL)
CCCCCn1c(CCCC)nc(Cl)c1/C=N/Nc1ccc2c3c(cccc13)C(=O)N(CCO)C2=O | 16 (≈ 8.16 µg/mL) | 251 (≈ 128 µg/mL) | 251 (≈ 128 µg/mL) | 126 (≈ 64.3 µg/mL) | 63 (≈ 32.1 µg/mL)
CCCCc1nc(Cl)c(/C=N/Nc2ccc3c4c(cccc24)C(=O)N(CCO)C3=O)n1CCO | 17 (≈ 8.23 µg/mL) | 33 (≈ 16 µg/mL) | 33 (≈ 16 µg/mL) | 17 (≈ 8.23 µg/mL) | 66 (≈ 31.9 µg/mL)
O=C1c2cccc3c(N/N=C/c4cccc(O)c4)ccc(c23)C(=O)N1CCO | 682 (≈ 256 µg/mL) | 341 (≈ 128 µg/mL) | 341 (≈ 128 µg/mL) | 341 (≈ 128 µg/mL) | 171 (≈ 64.2 µg/mL)
O=C1c2cccc3c(N/N=C/c4cc[nH]c4)ccc(c23)C(=O)N1CCO | 23 (≈ 8.01 µg/mL) | 367 (≈ 128 µg/mL) | 46 (≈ 16 µg/mL) | 367 (≈ 128 µg/mL) | 92 (≈ 32 µg/mL)
O=C1c2cccc3c(N/N=C/c4ccccn4)ccc(c23)C(=O)N1CCO | 711 (≈ 256 µg/mL) | 355 (≈ 128 µg/mL) | 711 (≈ 256 µg/mL) | 355 (≈ 128 µg/mL) | 355 (≈ 128 µg/mL)
CCN1C(=O)c2cccc3c(N/N=C/c4ccc([N+](=O)[O-])o4)ccc(c23)C1=O | 84 (≈ 31.8 µg/mL) | 42 (≈ 15.9 µg/mL) | 168 (≈ 63.6 µg/mL) | 84 (≈ 31.8 µg/mL) | 338 (≈ 128 µg/mL)
O=C1c2cccc3c(N/N=C/c4ccc[nH]4)ccc(c23)C(=O)N1CCO | 367 (≈ 128 µg/mL) | 183 (≈ 63.8 µg/mL) | 46 (≈ 16 µg/mL) | 92 (≈ 32 µg/mL) | 367 (≈ 128 µg/mL)
O=C1c2cccc3c(N/N=C/c4ccc(O)cc4O)ccc(c23)C(=O)N1CCO | 655 (≈ 256 µg/mL) | 327 (≈ 128 µg/mL) | 327 (≈ 128 µg/mL) | 655 (≈ 256 µg/mL) | 327 (≈ 128 µg/mL)
C/C(Cn1c([N+](=O)[O-])cnc1C)=N\Nc1ccc2c3c(cccc13)C(=O)N(c1ccc(F)c(Cl)c1)C2=O | 246 (≈ 128 µg/mL) | 491 (≈ 256 µg/mL) | 246 (≈ 128 µg/mL) | 983 (≈ 512 µg/mL) | 983 (≈ 512 µg/mL)
CCCCc1nc(Cl)c(/C=N/Nc2ccc3c4c(cccc24)C(=O)N(CCO)C3=O)n1Cc1ccc(F)cc1 | 58 (≈ 31.8 µg/mL) | 58 (≈ 31.8 µg/mL) | 58 (≈ 31.8 µg/mL) | 4 (≈ 2.19 µg/mL) | 117 (≈ 64.1 µg/mL)
CCCCc1nc(Cl)c(/C=N/Nc2ccc3c4c(cccc24)C(=O)N(CCO)C3=O)n1CC1CCCCC1 | 15 (≈ 8.04 µg/mL) | 120 (≈ 64.3 µg/mL) | 60 (≈ 32.2 µg/mL) | 7 (≈ 3.75 µg/mL) | 2 (≈ 1.07 µg/mL)
O=C1c2cccc3c(N/N=C/C=C/c4ccc([N+](=O)[O-])o4)ccc(c23)C(=O)N1CCO | 38 (≈ 16 µg/mL) | 9 (≈ 3.78 µg/mL) | 152 (≈ 63.9 µg/mL) | 38 (≈ 16 µg/mL) | 76 (≈ 31.9 µg/mL)

The remaining lines, values ahead:

MIC (Candida tropicalis) [µM] | MIC (Candida albicans [1]) [µM] | MIC (Candida parapsilosis) [µM] | MIC (Candida albicans [2]) [µM] | MIC (Aspergillus fumigatus) [µM] | SMILES
87 (≈ 31.7 µg/mL) | 87 (≈ 31.7 µg/mL) | 350 (≈ 128 µg/mL) | 175 (≈ 63.8 µg/mL) | 87 (≈ 31.7 µg/mL) | CN1C(=O)c2cccc3c(N/N=C/c4ccc([N+](=O)[O-])o4)ccc(c23)C1=O
156 (≈ 64 µg/mL) | 39 (≈ 16 µg/mL) | 78 (≈ 32 µg/mL) | 78 (≈ 32 µg/mL) | 19 (≈ 7.8 µg/mL) | O=C1c2cccc3c(N/N=C/c4ccc([N+](=O)[O-])s4)ccc(c23)C(=O)N1CCO
238 (≈ 128 µg/mL) | 238 (≈ 128 µg/mL) | 119 (≈ 63.9 µg/mL) | 953 (≈ 512 µg/mL) | 238 (≈ 128 µg/mL) | C/C(Cn1c([N+](=O)[O-])cnc1C)=N\Nc1ccc2c3c(cccc13)C(=O)N(c1ccc(Cl)cc1Cl)C2=O
34 (≈ 15.9 µg/mL) | 274 (≈ 128 µg/mL) | 548 (≈ 256 µg/mL) | 137 (≈ 64.1 µg/mL) | 68 (≈ 31.8 µg/mL) | CCCCc1nc(Cl)c(/C=N/Nc2ccc3c4c(cccc24)C(=O)N(CCO)C3=O)n1CC
87 (≈ 31.9 µg/mL) | 350 (≈ 128 µg/mL) | 22 (≈ 8.06 µg/mL) | 44 (≈ 16.1 µg/mL) | 175 (≈ 64.1 µg/mL) | O=C1c2cccc3c(N/N=C/c4cncs4)ccc(c23)C(=O)N1CCO
1020 (≈ 512 µg/mL) | 1020 (≈ 512 µg/mL) | 1020 (≈ 512 µg/mL) | 1020 (≈ 512 µg/mL) | 1020 (≈ 512 µg/mL) | C/C(Cn1c([N+](=O)[O-])cnc1C)=N\Nc1ccc2c3c(cccc13)C(=O)N(Cc1ccc(F)cc1)C2=O
73 (≈ 32.1 µg/mL) | 36 (≈ 15.8 µg/mL) | 291 (≈ 128 µg/mL) | 18 (≈ 7.92 µg/mL) | 73 (≈ 32.1 µg/mL) | CCCCc1nc(Cl)c(/C=N/Nc2ccc3c4c(cccc24)C(=O)N(CCO)C3=O)[nH]1
1020 (≈ 512 µg/mL) | 1020 (≈ 512 µg/mL) | 1020 (≈ 512 µg/mL) | 1020 (≈ 512 µg/mL) | 1020 (≈ 512 µg/mL) | CCCCCCCCN1C(=O)c2cccc3c(N/N=C(\C)Cn4c([N+](=O)[O-])cnc4C)ccc(c23)C1=O
1070 (≈ 512 µg/mL) | 1070 (≈ 512 µg/mL) | 1070 (≈ 512 µg/mL) | 1070 (≈ 512 µg/mL) | 1070 (≈ 512 µg/mL) | CCCCCCN1C(=O)c2cccc3c(N/N=C(\C)Cn4c([N+](=O)[O-])cnc4C)ccc(c23)C1=O
118 (≈ 32 µg/mL) | 118 (≈ 32 µg/mL) | 236 (≈ 64 µg/mL) | 118 (≈ 32 µg/mL) | 118 (≈ 32 µg/mL) | NNc1ccc2c3c(cccc13)C(=O)N(CCO)C2=O
